Test: Pharmacokinetic study, single intravenous infusion in cynomolgus monkeys
Settings: both, cynomolgus monkey, in vivo
Method: 18 cynomolgus monkeys (half female and half male) were weighed one day before administration, stratified based on the weight, and then randomly divided into 3 groups (3 females and 3 males/group): a low dose group (1 mg/kg), a medium dose group (3 mg/kg), and a high dose group (10 mg/kg). […] Blood was collected from the forelimb veins of cynomolgus monkeys in each group, and treated samples of the blood collected at 0 h before and 0.5 […], and 672 h after the administration were used as PK samples. After the blood collection at each time point was completed, serum was obtained by centrifugation for sample analysis.

Compound: CC[C@@]1(O)C(=O)OCc2c1cc1n(c2=O)Cc2c-1nc1cc(F)c(C)c3c1c2[C@@H](NC(=O)C[C@H](C)O)CC3 [P-III-30]
- AUC0-t (3 mg/kg): 1.07 ng·h/mL
- Cmax (3 mg/kg): 0.133 ng/mL
- AUC0-t (10 mg/kg): 44.5 ng·h/mL

Reference: patent US20260224723A1, “ANTI-B7H3 ANTIBODY-DRUG CONJUGATE AND USE THEREOF” (Duality Biologics (Suzhou) Co., Ltd., priority 2022, published 2026)
